Patent US20250136578A1 (Kolm Therapeutics Inc., priority 2023, published 2025)

Biological target: AR / CBP ternary complex (Homo sapiens, UniProt P10275+Q92793)
Experiment: Ternary complex formation assay (sandwich ELISA, AR capture, CBP antibody detection) in VCaP cell lysates
Type: cell-based
Conditions: treated 1.5 hours, rabbit CBP or p300 antibody detection, average, read-out: Average Ternary Complex
Description: Black MaxiSorp plates: coat with 50 μL of mouse 1/50 diluted AR antibody (Monoclonal Antibody (AR 441 from Thermo Fisher); diluted in phosphate buffered saline (PBS). Spin the liquid to the bottom of the wells, if necessary. Incubate overnight at 4° C. Next day, wash 3 times with 200 μL of TBST. Block with 200 μL of blocking buffer (5% BSA in TBST) at room temperature for 2 hours (BSA: A4503 or A2153 from Sigma). Wash plates 3 times with TBST. Plates are ready for lysates Preparation of dimerizer treated lysates
Culture cells in 96 wells at 50K VCaP cells/well for at least 3 days. Plate in 5% Omega charcoal stripped FBS in total volume of 200 uL. Treat with bifunctional for 1.5 hours by adding 1 μL of 200× stock in DMSO. Aspirate media/compound. Add and pipet-to-mix 70 μL of 1× AlphaLisa Lysis Buffer to each well (Perkin Elmer, AlphaLISA SureFire Ultra, diluted in water). Pipet up and down when adding lysis buffer to disrupt cells. Let lysis proceed for 30 min at 4° C.
Incubate for 1 hour at room temperature. Flick out the lysates. Wash 3 times with TBST. Add 75 μL of rabbit CBP or p300 antibody to each well (diluted 1:5000 in blocking buffer (5% BSA in TBST). CBP antibody: (D6C5) Rabbit mAb #7389; p300 antibody: (D8Z4E) Rabbit mAb #86377. Incubate overnight at 4° C. Wash 3 times with 300 uL TBST, each time on shaker for 5-10 min. Prepare goat anti-rabbit antibody conjugated to HRP (1/100K dilution in blocking buffer) Invitrogen Catalog number: 32260. Add 75 μL of HRP-conjugated goat anti-rabbit antibody. Incubate at room temperature for 1 hour. Flick out the HRP-antibody mixture. Wash 7-8 times with TBST, each time on shaker for 10 min. Later washes try to overflow the wells so that no residual HRP remains bound to the sides of the well. Prepare and add 75 uL/well of QuantaRed Enhance Chemifluorescent HRP Substrate solution. Immediately read fluorescence on BMG ClarioStar (ex: 570/em 585), and repeat the read in 5 minutes and 15 minutes.

Chain of AR / CBP ternary complex (P10275 whole entry): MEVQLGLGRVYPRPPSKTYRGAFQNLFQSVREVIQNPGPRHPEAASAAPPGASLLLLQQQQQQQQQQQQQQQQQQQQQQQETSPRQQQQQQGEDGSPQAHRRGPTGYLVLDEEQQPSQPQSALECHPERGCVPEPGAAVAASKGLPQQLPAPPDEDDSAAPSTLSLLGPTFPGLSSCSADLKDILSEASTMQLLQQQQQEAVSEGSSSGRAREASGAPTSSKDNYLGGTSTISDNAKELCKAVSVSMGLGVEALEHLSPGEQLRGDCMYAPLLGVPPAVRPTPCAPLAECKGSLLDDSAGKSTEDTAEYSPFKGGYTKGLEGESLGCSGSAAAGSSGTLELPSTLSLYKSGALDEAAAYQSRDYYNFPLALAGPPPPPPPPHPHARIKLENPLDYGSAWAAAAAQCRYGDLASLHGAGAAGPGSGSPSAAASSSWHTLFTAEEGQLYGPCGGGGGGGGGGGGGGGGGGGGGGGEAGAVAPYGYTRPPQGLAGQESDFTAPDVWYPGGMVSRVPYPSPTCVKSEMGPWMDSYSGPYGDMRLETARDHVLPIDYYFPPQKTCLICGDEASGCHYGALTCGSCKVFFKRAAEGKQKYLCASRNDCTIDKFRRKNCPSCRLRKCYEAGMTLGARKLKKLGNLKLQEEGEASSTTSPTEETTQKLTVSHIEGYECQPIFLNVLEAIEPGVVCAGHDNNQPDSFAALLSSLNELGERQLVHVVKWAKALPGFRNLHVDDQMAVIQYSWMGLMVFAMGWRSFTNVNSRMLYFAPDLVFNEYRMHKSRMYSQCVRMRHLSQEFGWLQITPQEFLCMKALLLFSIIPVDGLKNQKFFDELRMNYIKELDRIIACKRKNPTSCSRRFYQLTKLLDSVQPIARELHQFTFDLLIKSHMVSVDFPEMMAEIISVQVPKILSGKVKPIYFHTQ
Chain of AR / CBP ternary complex (Q92793 2-2442): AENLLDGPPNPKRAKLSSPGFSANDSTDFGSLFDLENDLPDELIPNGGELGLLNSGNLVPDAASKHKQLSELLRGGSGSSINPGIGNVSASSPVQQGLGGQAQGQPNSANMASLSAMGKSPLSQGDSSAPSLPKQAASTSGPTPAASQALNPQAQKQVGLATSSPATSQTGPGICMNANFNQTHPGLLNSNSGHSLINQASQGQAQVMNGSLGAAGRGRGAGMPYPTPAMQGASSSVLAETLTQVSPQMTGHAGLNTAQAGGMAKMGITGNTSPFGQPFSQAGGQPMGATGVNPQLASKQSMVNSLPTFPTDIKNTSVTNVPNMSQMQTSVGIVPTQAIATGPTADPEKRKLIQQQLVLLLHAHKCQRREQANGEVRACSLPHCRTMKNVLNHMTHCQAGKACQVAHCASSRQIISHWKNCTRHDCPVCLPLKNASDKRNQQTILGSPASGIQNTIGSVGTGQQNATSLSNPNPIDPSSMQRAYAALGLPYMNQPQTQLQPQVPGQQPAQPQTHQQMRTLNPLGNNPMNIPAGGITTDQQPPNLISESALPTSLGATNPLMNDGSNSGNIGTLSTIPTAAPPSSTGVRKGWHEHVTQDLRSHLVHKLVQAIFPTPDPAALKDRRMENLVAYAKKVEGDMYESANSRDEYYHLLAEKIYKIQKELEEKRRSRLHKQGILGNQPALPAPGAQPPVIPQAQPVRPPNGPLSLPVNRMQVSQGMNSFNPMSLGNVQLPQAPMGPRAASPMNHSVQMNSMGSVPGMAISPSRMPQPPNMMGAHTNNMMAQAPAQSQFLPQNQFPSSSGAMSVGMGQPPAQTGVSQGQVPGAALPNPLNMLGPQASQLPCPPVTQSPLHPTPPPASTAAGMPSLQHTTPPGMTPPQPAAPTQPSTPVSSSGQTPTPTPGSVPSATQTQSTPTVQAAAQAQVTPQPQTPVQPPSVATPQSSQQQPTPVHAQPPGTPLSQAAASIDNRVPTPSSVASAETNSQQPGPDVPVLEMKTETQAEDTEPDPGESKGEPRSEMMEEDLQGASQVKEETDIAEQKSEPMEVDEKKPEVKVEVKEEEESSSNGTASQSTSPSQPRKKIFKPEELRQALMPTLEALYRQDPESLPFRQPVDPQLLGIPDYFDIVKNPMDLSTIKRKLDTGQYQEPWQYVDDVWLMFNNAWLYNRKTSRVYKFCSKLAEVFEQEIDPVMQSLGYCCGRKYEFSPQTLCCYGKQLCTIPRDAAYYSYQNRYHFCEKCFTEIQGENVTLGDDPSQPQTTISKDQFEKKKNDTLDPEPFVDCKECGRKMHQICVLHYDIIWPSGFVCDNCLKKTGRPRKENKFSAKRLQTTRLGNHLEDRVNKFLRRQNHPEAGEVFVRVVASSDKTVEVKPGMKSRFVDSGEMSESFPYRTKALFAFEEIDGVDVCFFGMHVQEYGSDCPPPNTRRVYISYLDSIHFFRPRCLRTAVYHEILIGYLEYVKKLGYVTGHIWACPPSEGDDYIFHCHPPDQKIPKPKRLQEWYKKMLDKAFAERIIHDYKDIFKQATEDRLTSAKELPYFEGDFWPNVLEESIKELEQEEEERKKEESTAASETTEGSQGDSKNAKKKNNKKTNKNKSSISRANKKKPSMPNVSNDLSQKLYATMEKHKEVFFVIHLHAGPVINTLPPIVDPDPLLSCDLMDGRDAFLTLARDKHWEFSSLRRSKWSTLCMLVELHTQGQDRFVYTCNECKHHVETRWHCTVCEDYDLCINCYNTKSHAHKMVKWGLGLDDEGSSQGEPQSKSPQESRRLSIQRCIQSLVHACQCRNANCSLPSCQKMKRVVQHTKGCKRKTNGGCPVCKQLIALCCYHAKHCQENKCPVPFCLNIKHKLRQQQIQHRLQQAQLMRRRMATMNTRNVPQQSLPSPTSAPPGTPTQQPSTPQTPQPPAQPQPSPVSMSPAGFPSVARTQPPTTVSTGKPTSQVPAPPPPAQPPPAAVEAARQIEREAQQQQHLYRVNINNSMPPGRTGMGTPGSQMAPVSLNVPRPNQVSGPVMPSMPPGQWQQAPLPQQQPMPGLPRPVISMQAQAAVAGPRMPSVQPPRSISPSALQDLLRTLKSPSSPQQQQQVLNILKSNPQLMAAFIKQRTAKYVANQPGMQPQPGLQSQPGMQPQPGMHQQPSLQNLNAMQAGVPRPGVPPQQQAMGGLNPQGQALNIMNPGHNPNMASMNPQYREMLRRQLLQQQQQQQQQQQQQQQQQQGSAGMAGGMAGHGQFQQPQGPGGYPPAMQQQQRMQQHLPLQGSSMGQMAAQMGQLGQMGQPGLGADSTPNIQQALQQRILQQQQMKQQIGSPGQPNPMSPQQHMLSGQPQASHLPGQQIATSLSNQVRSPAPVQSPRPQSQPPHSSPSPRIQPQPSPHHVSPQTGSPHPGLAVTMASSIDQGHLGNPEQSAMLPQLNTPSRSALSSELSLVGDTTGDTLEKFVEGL

| EC50 | SMILES |
| --- | --- |
| > 100 nM | CC(=O)N1CCc2c(c(N3CCCc4cc(-c5cnn(C)c5)c(C(F)F)cc43)nn2[C@H]2CC[C@]3(CCCN(c4ccc(C(=O)N[C@H]5CC[C@H](Oc6ccc(C#N)c(Cl)c6)CC5)nn4)C3)CC2)C1 [Compound 266] |
| < 1 nM | CC(=O)N1CCc2c(c(N3CCCc4cc(-c5cnn(C)c5)c(C(F)F)cc43)nn2C2CCN(CC3CCN(c4ncc(C(=O)N[C@H]5CC[C@H](Oc6ccc(C#N)c(Cl)c6)CC5)cn4)CC3)CC2)C1 [Compound 17, 2-[4-[[4-[5-acetyl-3-[7-(difluoromethyl)-6-(1-methylpyrazol-4-yl)-3,4-dihydro-2H-quinolin-1-yl]-6,7-dihydro-4H-pyrazolo[4,3-c]pyridin-1-yl]-1-piperidyl]methyl]-1-piperidyl]-N-[4-(3-chloro-4-cyano-phenoxy)cyclohexyl]pyrimidine-5-carboxamide] |
| < 1 nM | CC(=O)N1CCc2c(c(N3CCCc4cc(-c5cnn(C)c5)c(C(F)F)cc43)nn2[C@H]2CCC3(CC2)C[C@H](Oc2ccc(C(=O)N[C@H]4CC[C@H](Oc5ccc(C#N)c(Cl)c5)CC4)nn2)C3)C1 (mixture of isomers) [Compound 235, 6-((7-(5-acetyl-3-(7-(difluoromethyl)-6-(1-methyl-1H-pyrazol-4-yl)-3,4-dihydroquinolin-1(2H)-yl)-4,5,6,7-tetrahydro-1H-pyrazolo[4,3-c]pyridin-1-yl)spiro[3.5]nonan-2-yl)oxy)-N-((1SR,4SR)-4-(3-chloro-4-cyanophenoxy)cyclohexyl)pyridazine-3-carboxamide] |
| < 1 nM | CC(=O)N1CCc2c(c(N3CCCc4cc(-c5ccn(C)n5)c(C(F)F)cc43)nn2C2CCC3(CC2)CC(Oc2ccc(C(=O)N[C@H]4CC[C@H](Oc5ccc(C#N)c(Cl)c5)CC4)nn2)C3)C1 (stereo partly drawn) [Compound 275] |
| < 1 nM | CC(=O)N1CCc2c(c(N3CCCc4cc(-c5cnn(C)c5)c(C(F)F)cc43)nn2C2CCN(CC3CCN(c4nnc(C(=O)N[C@H]5CC[C@H](Oc6ccc(C#N)c(Cl)c6)CC5)s4)CC3)CC2)C1 [Compound 225] |
| < 1 nM | CC(=O)N1CCc2c(c(-c3cccc4cc(-c5cnn(CCC6CCN(c7ccc(C(=O)N[C@H]8CC[C@H](Oc9ccc(C#N)c(Cl)c9)CC8)nn7)CC6)c5)ncc34)nn2C2CCOCC2)C1 [Compound 24, 6-[4-[2-[4-[8-(5-acetyl-1-tetrahydropyran-4-yl-6,7-dihydro-4H-pyrazolo[4,3-c]pyridin-3-yl)-3-isoquinolyl]pyrazol-1-yl]ethyl]-1-piperidyl]-N-[4-(3-chloro-4-cyano-phenoxy)cyclohexyl]pyridazine-3-carboxamide] |
| < 1 nM | CC(=O)N1CCc2c(c(N3CCCc4cc(C#N)c(C)cc43)nn2C2CCN(C[C@H]3[C@H](C)CN(c4ccc(C(=O)N[C@H]5CC[C@H](Oc6ccc(C#N)c(Cl)c6)CC5)nn4)C[C@@H]3C)CC2)C1 [Compound 285] |
| < 1 nM | CC(=O)N1CCc2c(c(-c3cccc4cc(-c5cnn(C)c5)ncc34)nn2C2CCN(CC3CCN(c4ncc(C(=O)N[C@H]5CC[C@H](Oc6ccc(C#N)c(Cl)c6)CC5)cn4)CC3)CC2)C1 [Compound 6] |
| < 1 nM | CC(=O)N1CCc2c(c(N3CCCc4cc(-c5cnn(C)c5)c(C(F)F)cc43)nn2C2CCN(CC3(F)CCN(c4ccc(C(=O)N[C@H]5CC[C@H](Oc6ccc(C#N)c(Cl)c6)CC5)nn4)CC3)CC2)C1 [Compound 142, 6-[4-[[4-[5-acetyl-3-[7-(difluoromethyl)-6-(1-methylpyrazol-4-yl)-3,4-dihydro-2H-quinolin-1-yl]-6,7-dihydro-4H-pyrazolo[4,3-c]pyridin-1-yl]-1-piperidyl]methyl]-4-fluoro-1-piperidyl]-N-[4-(3-chloro-4-cyano-phenoxy)cyclohexyl]pyridazine-3-carboxamide] |
